Here are results for two compounds from article PMC9513972, “Carboxypeptidase G and pterin deaminase metabolic pathways degrade folic acid in Variovorax sp. F1” (BMC Microbiology, 2022).

For the experiment, the system named is T1, recombinant PDA (rPDA) from Variovorax sp. F1.
T1 construct: full-length gene product, 399 residues; 45 kDa band; pET28a NdeI/XhoI (N-terminal His tag), E. coli BL21 (DE3), HisTrap
The experiment in a line: HPLC initial velocity, Michaelis-Menten fit. The format is biochemical. Conditions: 50 mM Tris-HCl pH 7.5, 30 °C. The text has this: HPLC initial velocity, Michaelis-Menten fit on recombinant PDA (rPDA) from Variovorax sp.

As usually defined, the Km is the concentration of substrate that gives half-maximal velocity.

`Nc1nc2ncc(CNc3ccc(C(=O)N[C@@H](CCC(=O)O)C(=O)O)cc3)nc2c(=O)[nH]1` [folic acid]: for the setting “deamination to deaminofolic acid”, the Km was 280 ± 60 µM. Regarding `Nc1nc2ncc(CNc3ccc(C(=O)O)cc3)nc2c(=O)[nH]1` [pteroic acid], the Km (deamination to deaminopteroic acid) worked out at 1500 ± 600 µM.
